# Source: patent US8192962B2, “Processes for detecting toxic substances” (Daikin Industries, Ltd., priority 2001, dated 2012)
# Test system: Stress protein genes
# Experiment: DNA chip mRNA expression in yeast, stress protein genes (Table 6)
# Assay type: cell-based, Saccharomyces cerevisiae S288C
# In short: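 Untreated cultures served as reference for log-phase S288C yeast given a growth-inhibiting, non-lethal toxicant dose for 2 h at 25° C. in YPD. Gene expression was measured on a whole-genome DNA chip from Cy3/Cy5-labeled cDNA.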
smiles,measurement,setting,value
"N#Cc1c(Cl)c(Cl)c(Cl)c(C#N)c1Cl [(9), 2,4,5,6-tetrachloro-1,3-benzenedicarbonitrile]",The level of expressed mRNA in the presence of chemical substance/The level of expressed mRNA in the absence of chemical substance,yeast gene YAL005C,3.9
same,The level of expressed mRNA in the presence of chemical substance/The level of expressed mRNA in the absence of chemical substance,yeast gene YAL015C,4.0
same,The level of expressed mRNA in the presence of chemical substance/The level of expressed mRNA in the absence of chemical substance,yeast gene YBL075C,60.3
same,The level of expressed mRNA in the presence of chemical substance/The level of expressed mRNA in the absence of chemical substance,yeast gene YBL093C,0.7
same,The level of expressed mRNA in the presence of chemical substance/The level of expressed mRNA in the absence of chemical substance,yeast gene YBR044C,0.8
same,The level of expressed mRNA in the presence of chemical substance/The level of expressed mRNA in the absence of chemical substance,yeast gene YBR054W,0.4
same,The level of expressed mRNA in the presence of chemical substance/The level of expressed mRNA in the absence of chemical substance,yeast gene YBR067C,1.7
same,The level of expressed mRNA in the presence of chemical substance/The level of expressed mRNA in the absence of chemical substance,yeast gene YBR072W,29.4
same,The level of expressed mRNA in the presence of chemical substance/The level of expressed mRNA in the absence of chemical substance,yeast gene YBR126C,1.7
same,The level of expressed mRNA in the presence of chemical substance/The level of expressed mRNA in the absence of chemical substance,yeast gene YBR169C,7.0
same,The level of expressed mRNA in the presence of chemical substance/The level of expressed mRNA in the absence of chemical substance,yeast gene YCL035C,1.9
same,The level of expressed mRNA in the presence of chemical substance/The level of expressed mRNA in the absence of chemical substance,yeast gene YCR021C,2.2
same,The level of expressed mRNA in the presence of chemical substance/The level of expressed mRNA in the absence of chemical substance,yeast gene YCR060W,0.7
same,The level of expressed mRNA in the presence of chemical substance/The level of expressed mRNA in the absence of chemical substance,yeast gene YCR083W,1.8
same,The level of expressed mRNA in the presence of chemical substance/The level of expressed mRNA in the absence of chemical substance,yeast gene YDL022W,1.2
same,The level of expressed mRNA in the presence of chemical substance/The level of expressed mRNA in the absence of chemical substance,yeast gene YDL025C,3.6
same,The level of expressed mRNA in the presence of chemical substance/The level of expressed mRNA in the absence of chemical substance,yeast gene YDR033W,0.3
same,The level of expressed mRNA in the presence of chemical substance/The level of expressed mRNA in the absence of chemical substance,yeast gene YDR077W,0.7
same,The level of expressed mRNA in the presence of chemical substance/The level of expressed mRNA in the absence of chemical substance,yeast gene YDR098C,3.7
same,The level of expressed mRNA in the presence of chemical substance/The level of expressed mRNA in the absence of chemical substance,yeast gene YDR155C,1.3
same,The level of expressed mRNA in the presence of chemical substance/The level of expressed mRNA in the absence of chemical substance,yeast gene YDR258C,4.9
same,The level of expressed mRNA in the presence of chemical substance/The level of expressed mRNA in the absence of chemical substance,yeast gene YDR293C,1.2
same,The level of expressed mRNA in the presence of chemical substance/The level of expressed mRNA in the absence of chemical substance,yeast gene YDR436W,3.5
same,The level of expressed mRNA in the presence of chemical substance/The level of expressed mRNA in the absence of chemical substance,yeast gene YDR513W,4.6
same,The level of expressed mRNA in the presence of chemical substance/The level of expressed mRNA in the absence of chemical substance,yeast gene YDR519W,0.5
same,The level of expressed mRNA in the presence of chemical substance/The level of expressed mRNA in the absence of chemical substance,yeast gene YEL030W,2.3
same,The level of expressed mRNA in the presence of chemical substance/The level of expressed mRNA in the absence of chemical substance,yeast gene YEL039C,1.2
same,The level of expressed mRNA in the presence of chemical substance/The level of expressed mRNA in the absence of chemical substance,yeast gene YER042W,6.8
same,The level of expressed mRNA in the presence of chemical substance/The level of expressed mRNA in the absence of chemical substance,yeast gene YER057C,0.6
same,The level of expressed mRNA in the presence of chemical substance/The level of expressed mRNA in the absence of chemical substance,yeast gene YER103W,20.3
same,The level of expressed mRNA in the presence of chemical substance/The level of expressed mRNA in the absence of chemical substance,yeast gene YER125W,0.6
same,The level of expressed mRNA in the presence of chemical substance/The level of expressed mRNA in the absence of chemical substance,yeast gene YFL014W,13.1
same,The level of expressed mRNA in the presence of chemical substance/The level of expressed mRNA in the absence of chemical substance,yeast gene YFL016C,6.4
same,The level of expressed mRNA in the presence of chemical substance/The level of expressed mRNA in the absence of chemical substance,yeast gene YFL020C,1.3
same,The level of expressed mRNA in the presence of chemical substance/The level of expressed mRNA in the absence of chemical substance,yeast gene YFR052W,3.7
same,The level of expressed mRNA in the presence of chemical substance/The level of expressed mRNA in the absence of chemical substance,yeast gene YGL073W,1.9
same,The level of expressed mRNA in the presence of chemical substance/The level of expressed mRNA in the absence of chemical substance,yeast gene YGL115W,1.2
same,The level of expressed mRNA in the presence of chemical substance/The level of expressed mRNA in the absence of chemical substance,yeast gene YGL181W,2.7
same,The level of expressed mRNA in the presence of chemical substance/The level of expressed mRNA in the absence of chemical substance,yeast gene YGR088W,1.5
same,The level of expressed mRNA in the presence of chemical substance/The level of expressed mRNA in the absence of chemical substance,yeast gene YHL028W,0.2
same,The level of expressed mRNA in the presence of chemical substance/The level of expressed mRNA in the absence of chemical substance,yeast gene YHL046C,1.0
same,The level of expressed mRNA in the presence of chemical substance/The level of expressed mRNA in the absence of chemical substance,yeast gene YHR030C,0.6
same,The level of expressed mRNA in the presence of chemical substance/The level of expressed mRNA in the absence of chemical substance,yeast gene YHR057C,2.6
same,The level of expressed mRNA in the presence of chemical substance/The level of expressed mRNA in the absence of chemical substance,yeast gene YHR104W,4.8
same,The level of expressed mRNA in the presence of chemical substance/The level of expressed mRNA in the absence of chemical substance,yeast gene YIL011W,0.0
same,The level of expressed mRNA in the presence of chemical substance/The level of expressed mRNA in the absence of chemical substance,yeast gene YIL033C,2.4
same,The level of expressed mRNA in the presence of chemical substance/The level of expressed mRNA in the absence of chemical substance,yeast gene YIR037W,6.2
same,The level of expressed mRNA in the presence of chemical substance/The level of expressed mRNA in the absence of chemical substance,yeast gene YIR038C,4.6
same,The level of expressed mRNA in the presence of chemical substance/The level of expressed mRNA in the absence of chemical substance,yeast gene YJL128C,2.0
same,The level of expressed mRNA in the presence of chemical substance/The level of expressed mRNA in the absence of chemical substance,yeast gene YJL158C,0.2
same,The level of expressed mRNA in the presence of chemical substance/The level of expressed mRNA in the absence of chemical substance,yeast gene YJL159W,0.5
same,The level of expressed mRNA in the presence of chemical substance/The level of expressed mRNA in the absence of chemical substance,yeast gene YJL165C,2.8
same,The level of expressed mRNA in the presence of chemical substance/The level of expressed mRNA in the absence of chemical substance,yeast gene YJR045C,3.2
same,The level of expressed mRNA in the presence of chemical substance/The level of expressed mRNA in the absence of chemical substance,yeast gene YJR090C,1.9
same,The level of expressed mRNA in the presence of chemical substance/The level of expressed mRNA in the absence of chemical substance,yeast gene YKL161C,1.4
same,The level of expressed mRNA in the presence of chemical substance/The level of expressed mRNA in the absence of chemical substance,yeast gene YKL163W,0.7
same,The level of expressed mRNA in the presence of chemical substance/The level of expressed mRNA in the absence of chemical substance,yeast gene YKL164C,0.4
same,The level of expressed mRNA in the presence of chemical substance/The level of expressed mRNA in the absence of chemical substance,yeast gene YKL210W,3.5
same,The level of expressed mRNA in the presence of chemical substance/The level of expressed mRNA in the absence of chemical substance,yeast gene YKR053C,0.8
same,The level of expressed mRNA in the presence of chemical substance/The level of expressed mRNA in the absence of chemical substance,yeast gene YLL024C,2.8
same,The level of expressed mRNA in the presence of chemical substance/The level of expressed mRNA in the absence of chemical substance,yeast gene YLL026W,11.4
same,The level of expressed mRNA in the presence of chemical substance/The level of expressed mRNA in the absence of chemical substance,yeast gene YLL039C,3.4
same,The level of expressed mRNA in the presence of chemical substance/The level of expressed mRNA in the absence of chemical substance,yeast gene YLL060C,13.0
same,The level of expressed mRNA in the presence of chemical substance/The level of expressed mRNA in the absence of chemical substance,yeast gene YLR006C,1.1
same,The level of expressed mRNA in the presence of chemical substance/The level of expressed mRNA in the absence of chemical substance,yeast gene YLR109W,2.4
same,The level of expressed mRNA in the presence of chemical substance/The level of expressed mRNA in the absence of chemical substance,yeast gene YLR259C,1.8
same,The level of expressed mRNA in the presence of chemical substance/The level of expressed mRNA in the absence of chemical substance,yeast gene YML007W,2.1
same,The level of expressed mRNA in the presence of chemical substance/The level of expressed mRNA in the absence of chemical substance,yeast gene YML070W,4.5
same,The level of expressed mRNA in the presence of chemical substance/The level of expressed mRNA in the absence of chemical substance,yeast gene YMR021C,0.6
same,The level of expressed mRNA in the presence of chemical substance/The level of expressed mRNA in the absence of chemical substance,yeast gene YMR173W,2.7
same,The level of expressed mRNA in the presence of chemical substance/The level of expressed mRNA in the absence of chemical substance,yeast gene YMR186W,2.6
same,The level of expressed mRNA in the presence of chemical substance/The level of expressed mRNA in the absence of chemical substance,yeast gene YNL064C,2.4
same,The level of expressed mRNA in the presence of chemical substance/The level of expressed mRNA in the absence of chemical substance,yeast gene YNL160W,3.5
same,The level of expressed mRNA in the presence of chemical substance/The level of expressed mRNA in the absence of chemical substance,yeast gene YNL241C,3.4
same,The level of expressed mRNA in the presence of chemical substance/The level of expressed mRNA in the absence of chemical substance,yeast gene YNR076W,1.3
same,The level of expressed mRNA in the presence of chemical substance/The level of expressed mRNA in the absence of chemical substance,yeast gene YOL064C,8.7
same,The level of expressed mRNA in the presence of chemical substance/The level of expressed mRNA in the absence of chemical substance,yeast gene YOL161C,0.7
same,The level of expressed mRNA in the presence of chemical substance/The level of expressed mRNA in the absence of chemical substance,yeast gene YOR008C,1.9
same,The level of expressed mRNA in the presence of chemical substance/The level of expressed mRNA in the absence of chemical substance,yeast gene YOR009W,0.4
same,The level of expressed mRNA in the presence of chemical substance/The level of expressed mRNA in the absence of chemical substance,yeast gene YOR010C,0.6
same,The level of expressed mRNA in the presence of chemical substance/The level of expressed mRNA in the absence of chemical substance,yeast gene YOR027W,3.5
same,The level of expressed mRNA in the presence of chemical substance/The level of expressed mRNA in the absence of chemical substance,yeast gene YOR208W,1.5
same,The level of expressed mRNA in the presence of chemical substance/The level of expressed mRNA in the absence of chemical substance,yeast gene YPL059W,2.0
same,The level of expressed mRNA in the presence of chemical substance/The level of expressed mRNA in the absence of chemical substance,yeast gene YPL106C,4.9
same,The level of expressed mRNA in the presence of chemical substance/The level of expressed mRNA in the absence of chemical substance,yeast gene YPL140C,0.9
same,The level of expressed mRNA in the presence of chemical substance/The level of expressed mRNA in the absence of chemical substance,yeast gene YPL194W,9.6
same,The level of expressed mRNA in the presence of chemical substance/The level of expressed mRNA in the absence of chemical substance,yeast gene YPL223C,29.4
same,The level of expressed mRNA in the presence of chemical substance/The level of expressed mRNA in the absence of chemical substance,yeast gene YPL240C,3.5
same,The level of expressed mRNA in the presence of chemical substance/The level of expressed mRNA in the absence of chemical substance,yeast gene YPR005C,2.8
same,The level of expressed mRNA in the presence of chemical substance/The level of expressed mRNA in the absence of chemical substance,yeast gene YPR026W,0.9
